From PubChem BioAssay AID2060613 (Molecular Pharmacology Branch, DTP, NCI, 2025)

System: 233499-124-R-J3-PDC complex spheroid viability
Test: Anticancer human tumor 233499-124-R-J3-PDC patient-derived colon adenocarcinoma cell line growth inhibition [CLK]
Settings: for IC50: curve of first compound; for viability, T/C: stronger effect = lower value; active = viability on the fitted dose curve at most 10% of control; inactive = the rest
Method in brief: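 Patient-derived tumor cells grown as complex spheroids with HUVEC endothelial cells and mesenchymal stem cells, treated with drug combinations. Concentrations descend in half-log steps from near clinical Cmax, or from 10 microM if Cmax unknown.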
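Also: spheroids exposed to the drug combinations for seven days.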
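For viability, T/C in this document: percent viability relative to DMSO vehicle control wells taken as 100%.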

Cn1ncnc1[C@H]1c2n[nH]c(=O)c3cc(F)cc(c23)N[C@@H]1c1ccc(F)cc1 + CNC(=O)c1ccc(Nc2nc(OC3CCCC3)c3c(-c4ccc5nc(C)oc5c4)c[nH]c3n2)c(OC)c1
> 0.1 µM: IC50 (second compound 0.0316 µM) | IC50 (second compound 0.1 µM) | IC50 (second compound 0.316 µM) | IC50 (second compound 1 µM) | IC50 (second compound 3.16 µM) | IC50 (second compound 10 µM)
inactive: viability, T/C (second compound 0.0316 µM, first compound 0.000316 µM) 91.3% | viability, T/C (second compound 0.0316 µM, first compound 0.001 µM) 96.5% | viability, T/C (second compound 0.0316 µM, first compound 0.00316 µM) 91% | viability, T/C (second compound 0.0316 µM, first compound 0.01 µM) 95.9% | viability, T/C (second compound 0.0316 µM, first compound 0.0316 µM) 110% | viability, T/C (second compound 0.0316 µM, first compound 0.1 µM) 103% | viability, T/C (second compound 0.1 µM, first compound 0.000316 µM) 77.5% | viability, T/C (second compound 0.1 µM, first compound 0.001 µM) 71.4% | viability, T/C (second compound 0.1 µM, first compound 0.00316 µM) 77.2% | viability, T/C (second compound 0.1 µM, first compound 0.01 µM) 71.8% | viability, T/C (second compound 0.1 µM, first compound 0.0316 µM) 78.8% | viability, T/C (second compound 0.1 µM, first compound 0.1 µM) 60.8% | viability, T/C (second compound 0.316 µM, first compound 0.000316 µM) 80.5% | viability, T/C (second compound 0.316 µM, first compound 0.001 µM) 75.5% | viability, T/C (second compound 0.316 µM, first compound 0.00316 µM) 58.6% | viability, T/C (second compound 0.316 µM, first compound 0.01 µM) 57.7% | viability, T/C (second compound 0.316 µM, first compound 0.0316 µM) 66% | viability, T/C (second compound 0.316 µM, first compound 0.1 µM) 64.5% | viability, T/C (second compound 1 µM, first compound 0.000316 µM) 76.5% | viability, T/C (second compound 1 µM, first compound 0.001 µM) 87.3% | viability, T/C (second compound 1 µM, first compound 0.00316 µM) 79.8% | viability, T/C (second compound 1 µM, first compound 0.01 µM) 74.1% | viability, T/C (second compound 1 µM, first compound 0.0316 µM) 56.8% | viability, T/C (second compound 1 µM, first compound 0.1 µM) 59.7% | viability, T/C (second compound 3.16 µM, first compound 0.000316 µM) 67.3% | viability, T/C (second compound 3.16 µM, first compound 0.001 µM) 69% | viability, T/C (second compound 3.16 µM, first compound 0.00316 µM) 69.3% | viability, T/C (second compound 3.16 µM, first compound 0.01 µM) 67.8% | viability, T/C (second compound 3.16 µM, first compound 0.0316 µM) 72.8% | viability, T/C (second compound 3.16 µM, first compound 0.1 µM) 64.8% | viability, T/C (second compound 10 µM, first compound 0.000316 µM) 67.1% | viability, T/C (second compound 10 µM, first compound 0.001 µM) 56.3% | viability, T/C (second compound 10 µM, first compound 0.00316 µM) 74.3% | viability, T/C (second compound 10 µM, first compound 0.01 µM) 73.9% | viability, T/C (second compound 10 µM, first compound 0.0316 µM) 50.5% | viability, T/C (second compound 10 µM, first compound 0.1 µM) 58.1%
